pIC50: −log10 of the molar value. A value given as a limit tells only on which side of the number the result lay.

Test [1] deals with cultured human mast cells (CHMC). As to the kind of experiment: CHMC low cell density IgE activation: tryptase assay. Type of test: cell-based. Particulars: IgE activation. The procedure, abridged:
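Tryptase release was read from supernatant with a fluorogenic substrate (30 min, room temperature) after anti-IgE challenge of cultured human mast cells (1000–1500 cells/well, low density) for 30 minutes at 37° C.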

Test [2] shares this test system. Briefly: CHMC low cell density ionomycin activation: tryptase assay. Particulars: read-out: LD Tryptase, CHMC, Iono, 3 pt. The format is cell-based.
[3] abbreviates: low cell density, 3 pt, read-out: LD Tryptase, CHMC, IgE, 3 pt.
Setting [4] is: Homo sapiens, Mast cell, low cell density CHMC, tryptase, 3 pt, read-out: LD Tryptase, CHMC, IgE, 3 pt.
Setting [5] is: Homo sapiens, Mast cell, low cell density CHMC, tryptase, 8 pt, read-out: LD Tryptase, CHMC, IgE, 8 pt.
[6] abbreviates: Homo sapiens, Mast cell, low cell density CHMC, tryptase, 3 pt.
The mark [7] stands for this setting: Homo sapiens, Mast cell, low cell density CHMC, tryptase release, 3 pt, read-out: LD Tryptase, CHMC, IgE, 3 pt.
Where [8] appears, read: Homo sapiens, Mast cell, low cell density CHMC, tryptase release, 8 pt, read-out: LD Tryptase, CHMC, IgE, 8 pt.
Setting [9] is: Homo sapiens, Mast cell, low cell density CHMC, tryptase release, 3 pt.

Turning to `CNC(=O)c1cc(Nc2ncc(F)c(N(C)c3ccc(OC)c(OC)c3)n2)ccc1Cl` [Compound 454, N2-[4-Chloro-3-(N-methylamino)carbonylphenyl]-N4-(3,4-dimethoxyphenyl)-5-fluoro-N4-methyl-4-pyrimidinediamine], the pIC50 was > 5.00 in test [1] (setting [3]) and < 5.00 in test [2] (low cell density, 3 pt).
Turning to `NC1CCOc2ccc(Nc3nc(Nc4cccc(-c5ncco5)c4)ncc3F)cc21` (centres unmarked) [Compound 1285], the pIC50 is > 5.00 in test [1] (setting [4]), > 5.00 in test [1] (setting [5]) and < 5.00 in test [2] (setting [6]).
Regarding `CC1(C)Oc2ccc(Nc3nc(Nc4cccc(-c5ncco5)c4)ncc3F)cc2NC1=O` [Compound 1281], the pIC50 is > 5.00 in test [1] (setting [4]), > 5.00 in test [1] (setting [5]) and < 5.00 in test [2] (setting [6]).
With `CNC(=O)c1ccc(Nc2ncc(F)c(N(C)c3ccc4c(c3)OCCO4)n2)cc1Cl` [Compound 473, N2-[3-Chloro-4-(N-methylamino)carbonylphenyl]-N4-(3,4-ethylenedioxyphenyl)-5-fluoro-N4-methyl-2,4-pyrimidinediamine], the pIC50 is > 5.00 in test [1] (Homo sapiens, Mast cell, low cell density, 3 pt, read-out: LD Tryptase, CHMC, IgE, 3 pt) and < 5.00 in test [2] (Homo sapiens, Mast cell, low cell density, 3 pt).
Consider `COc1ccc(Nc2nc(Nc3ccc(-c4ncco4)cc3)ncc2F)cc1OC` [Compound 424], for which the pIC50 in test [1] (setting [4]) is > 5.00; in test [2] (setting [6]), < 5.00.
For the molecule `CNC(=O)CNC(=O)c1ccc(Nc2ncc(F)c(Nc3ccc4c(c3)NC(=O)[C@H](C)O4)n2)cc1` [Compound 1296, (S)-5-Fluoro-N2-[4-[N-(N-methylamino)carbonylmethylene]aminocarbonylphenyl]-N4-(2-methyl-3-oxo-2H,4H-benz[1,4]oxazin-6-yl)-2,4-pyrimidinediamine], the pIC50 is > 5.00 in test [1] (low cell density CHMC, tryptase, 3 pt, read-out: LD Tryptase, CHMC, IgE, 3 pt); > 5.00 in test [1] (low cell density CHMC, tryptase, 8 pt, read-out: LD Tryptase, CHMC, IgE, 8 pt); < 5.00 in test [2] (low cell density CHMC, tryptase, 3 pt).
In the case of “2-Chloro-N4- (3,5-dichloro-4-methoxyphenyl-5-fluoro-N4-methyl-4-pyrimidineamine [Compound 491]”, the pIC50 is < 5.00 in test [1] (setting [3]) and < 5.00 in test [2] (low cell density, 3 pt).
Turning to `COCCCn1ncc2ccc(Nc3ncc(F)c(Nc4ccc(Cl)c(Cl)c4)n3)cc21` [Compound 797, N4-(3,4-Dichlorophenyl)-5-fluoro-N2-[1-(3-methoxypropyl)indazol-6-yl]-2,4-pyrimidinediamine], the values for the pIC50 in test [1] (setting [7]), in test [1] (setting [8]) and in test [2] (setting [9]) were > 5.00, > 5.00 and < 5.00, respectively.
Regarding `CCn1ncc2cc(Nc3ncc(F)c(Nc4ccc(F)c(OC)c4)n3)ccc21` [Compound 697, N2-(1-Ethylindazol-5-yl)-5-fluoro-N4-(4-fluoro-3-methoxyphenyl)-2,4-pyrimidinediamine], the pIC50 in test [1] (setting [4]) is > 5.00; in test [1] (setting [5]), > 5.00; in test [2] (setting [6]) it was < 5.00.
Regarding `C[C@@H]1Oc2ccc(Nc3nc(Nc4ccc5[nH]c(C(F)(F)F)nc5c4)ncc3F)cc2NC1=O` [Compound 803, (S)-5-Fluoro-N4-(2-methyl-3-oxo-2H,4H-benz[1,4]oxazin-6-yl)-N2-(2-trifluoromethyl-1H-benzimidazol-5-yl)-2,4-pyrimidinediamine], the pIC50 was > 5.00 in test [1] (setting [7]), > 5.00 in test [1] (setting [8]) and < 5.00 in test [2] (setting [9]).
As for `CN1C(=O)C(C)(C)Oc2ccc(Nc3nc(Nc4cccc(-c5cnco5)c4)ncc3F)nc21` [Compound 1017, 5-Fluoro-N2-[3-(oxazol-5-yl)phenyl]-N4-[3-oxo-2,2,4-trimethyl-5-pyrid[1,4]oxazin-6-yl]-2,4-pyrimidinediamine], the pIC50 in test [1] (low cell density CHMC, tryptase readout, 3 pt, read-out: LD Tryptase, CHMC, IgE, 3 pt) is > 5.00; in test [1] (low cell density CHMC, tryptase readout, 8 pt, read-out: LD Tryptase, CHMC, IgE, 8 pt) it was > 5.00; in test [2] (low cell density CHMC, tryptase readout, 3 pt), < 5.00.
Turning to “N4- (4-Chloro-3-methoxyphenyl)-5-fluoro-N2-[1-(methoxycarbonylmethylene)indol-5-yl]-2,4-pyrimidinediamine [Compound 645]”, the pIC50 was > 5.00 in test [1] (low cell density CHMC, tryptase release, 3 point, read-out: LD Tryptase, CHMC, IgE, 3 pt); > 5.00 in test [1] (low cell density CHMC, tryptase release, 8 point, read-out: LD Tryptase, CHMC, IgE, 8 pt); < 5.00 in test [2] (low cell density CHMC, tryptase release, 3 point).
For `CC(=O)OCCCn1ncc2ccc(Nc3ncc(F)c(Nc4ccc(Cl)c(Cl)c4)n3)cc21` [Compound 790, N2-[1-(3-Acetyloxypropyl)indazol-6-yl]-N4-(3,4-dichlorophenyl)-5-fluoro-2,4-pyrimidinediamine], the figures for the pIC50 in test [1] (setting [7]), in test [1] (setting [8]) and in test [2] (setting [9]) were > 5.00, > 5.00 and < 5.00, respectively.

Source of the values: patent US20220073536A1 (Rigel Pharmaceuticals, Inc., priority 2003, published 2022).
